These results are taken from BindingDB's records for doi:10.1016/S1074-5521(00)00104-6 (Axys Pharmaceutical, 2000).

Holding throughout (assay): Enzyme Assay and Determination of the Inhibition Constants
Holding throughout (settings): pH 7.4; 22 °C

Experiment [1] concerns the target Tryptase beta-2 (Homo sapiens, UniProt P20231). As for the experimental part: (§1) Each enzyme was assayed with a set of different concentrations of each inhibitor. […] Ki(apparent) values were calculated from enzyme velocity curves using the software package BatchKi (BioKin Ltd, Madison, WI). These apparent inhibition constants were then converted to Ki values by assuming competitive inhibition and using the formula Ki = Ki(apparent)/(1 + S/Km).

The target of experiment [2] is Prothrombin (Homo sapiens, UniProt P00734). The protocol:
as §1

Experiment [3] deals with Tissue-type plasminogen activator (Homo sapiens, UniProt P00750). The protocol:
as §1

Experiment [4] deals with Coagulation factor X (Homo sapiens, UniProt P00742). As for the experimental part:
as §1

In experiment [5] the target is Urokinase-type plasminogen activator (Homo sapiens, UniProt P00749). The protocol: as §1

Chain of Coagulation factor X (P00742 41-179 limits assumed): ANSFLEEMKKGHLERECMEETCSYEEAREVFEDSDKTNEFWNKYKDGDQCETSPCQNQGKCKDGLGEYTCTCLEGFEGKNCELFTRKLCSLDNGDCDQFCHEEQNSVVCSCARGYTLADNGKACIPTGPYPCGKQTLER
Chain of Coagulation factor X (P00742 235-488 limits assumed): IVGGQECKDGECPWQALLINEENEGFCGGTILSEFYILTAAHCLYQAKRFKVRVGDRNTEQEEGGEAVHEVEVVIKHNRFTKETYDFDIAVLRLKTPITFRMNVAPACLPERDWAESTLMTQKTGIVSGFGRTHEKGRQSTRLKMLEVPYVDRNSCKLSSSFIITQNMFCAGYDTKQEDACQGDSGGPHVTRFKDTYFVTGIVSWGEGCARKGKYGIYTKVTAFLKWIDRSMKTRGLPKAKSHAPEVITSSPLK
Chain of Tissue-type plasminogen activator (P00750 whole entry): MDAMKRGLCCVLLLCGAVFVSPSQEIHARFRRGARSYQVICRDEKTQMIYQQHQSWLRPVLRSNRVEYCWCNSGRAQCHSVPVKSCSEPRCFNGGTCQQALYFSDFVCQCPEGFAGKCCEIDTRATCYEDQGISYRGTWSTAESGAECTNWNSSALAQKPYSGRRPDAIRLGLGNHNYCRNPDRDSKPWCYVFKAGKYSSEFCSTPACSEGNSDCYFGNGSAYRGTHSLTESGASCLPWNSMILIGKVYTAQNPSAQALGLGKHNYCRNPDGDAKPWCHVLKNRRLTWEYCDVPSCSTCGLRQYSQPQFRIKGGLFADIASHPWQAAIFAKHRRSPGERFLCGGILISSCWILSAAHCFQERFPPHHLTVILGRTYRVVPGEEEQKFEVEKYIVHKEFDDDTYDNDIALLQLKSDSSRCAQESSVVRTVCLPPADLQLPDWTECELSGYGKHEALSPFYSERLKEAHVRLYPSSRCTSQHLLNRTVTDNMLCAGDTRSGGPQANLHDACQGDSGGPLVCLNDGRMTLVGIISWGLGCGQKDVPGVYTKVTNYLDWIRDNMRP
Chain of Tryptase beta-2 (P20231 as listed by the source): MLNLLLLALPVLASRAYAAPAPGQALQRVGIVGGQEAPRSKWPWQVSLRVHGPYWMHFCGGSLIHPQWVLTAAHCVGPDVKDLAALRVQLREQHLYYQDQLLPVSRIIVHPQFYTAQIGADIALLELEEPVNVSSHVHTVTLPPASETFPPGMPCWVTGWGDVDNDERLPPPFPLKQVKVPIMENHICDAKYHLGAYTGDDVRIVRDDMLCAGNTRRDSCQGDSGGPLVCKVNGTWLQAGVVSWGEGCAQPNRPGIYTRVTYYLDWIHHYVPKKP

The term Ki denotes a dissociation constant, usually derived from enzyme kinetics or from competition with a known ligand. For the molecule `N=C(N)c1cc2cccnc2s1` [[amino(thieno[2,3-b]pyridin-2-yl)methylidene]azanium], the Ki in experiment [1] is 34 µM; in experiment [2] it was 1600 µM; in experiment [3], 1800 µM; in experiment [4], 360 µM.
As for `N=C(N)c1ccccc1` [Benzamidine], in experiment [4], the Ki worked out at 110 µM.
In the case of `N=C(N)c1cc2c(I)cccc2s1` [CA-01], the results for the Ki in experiment [1], in experiment [3] and in experiment [4] were 1.5 µM, 16.8 µM and 30 µM, respectively.
For `N=C(N)c1cc2ccccc2s1` [Benzo[b]thiophene-2-carboxamidine], the Ki is 9.9 µM in experiment [1]; 58 µM in experiment [2]; 15 µM in experiment [3]; 2.3 µM in experiment [5]; 21 µM in experiment [4].
